Earlier results, collected in patent publication US11796546B2, “Methods for quantifying drug concentration in a prodrug composition” (GENZYME CORPORATION, priority 2019, dated 2023).

Assays:
[1] = tested on: type 2 diabetes mellitus patients

## HdSQGTFTSDLSKQK(γE-palmitate)ESKAAQDFIEWLKAGGPSSGAPPPS-NH2 [SAR425899]
[1]
  glycemic control and weight loss: facilitate glycemic control and weight loss
other
  in vivo clearance: rapid in vivo clearance
